Source: patent US12358894B2 (priority 2019, dated 2025)

Test system: pathogens of rice blast
Assay type: cell-based
Settings: test solution 2000 ppm, 1,000 μl on oatmeal culture medium, 4-mm rice blast disc, 25° C., 6 days; calculated from elongation length of hyphae with vs without treatment

For `COc1nc(-n2cccn2)nc(F)c1C(F)(F)F` [Example 1, 6-fluoro-4-methoxy-2-(1-pyrazolyl)-5-(trifluoromethyl)pyrimidine], the Preventive value was 100.
